Reference: patent publication US20100261723A1, “TRISUBSTITUTED PYRIMIDINE DERIVATIVES FOR THE TREATMENT OF PROLIFERATIVE DISEASES” (ASTRAZENECA AB, priority 2007, published 2010)

Target: T1, mTOR kinase (Homo sapiens, UniProt P42345)
T1 construct: FLAG; made in house
Assay: In vitro mTOR kinase assay, Test (a)(i) (AlphaScreen)
Format: biochemical
Details: recombinant FLAG-tagged mTOR (1362-2549), ATP 20 μM; read-out: Test (a)(i) IC50
Description: (a)(i) In Vitro mTOR Kinase Assay
A C-terminal truncation of mTOR encompassing amino acid residues 1362 to 2549 of mTOR (EMBL Accession No. L34075) was stably expressed as a FLAG-tagged fusion in HEK293 cells as described by Vilella-Bach et al., […], 1999, 274, 4266-4272. The HEK293 FLAG-tagged mTOR (1362-2549) stable cell line was routinely maintained at 37° C. with 5% CO2 up to a confluency of 70-90% in Dulbecco's modified Eagle's growth medium (DMEM; Invitrogen Limited, Paisley, UK Catalogue No. 41966-029) containing 10% heat-inactivated foetal calf serum (FCS; Sigma, Poole, Dorset, UK, Catalogue No. F0392), 1% L-glutamine (Gibco, Catalogue No. 25030-024) and 2 mg/ml Geneticin (G418 sulfate; Invitrogen Limited, UK Catalogue No. 10131-027). Following expression in the mammalian HEK293 cell line, expressed protein was purified using the FLAG epitope tag using standard purification techniques.
A 30 μl mixture of recombinant purified mTOR enzyme, 1 μM biotinylated peptide substrate (Biotin-Ahx-[…]NH2; Bachem UK Ltd), ATP (20 μM) and a buffer solution [comprising Tris-HCl pH7.4 buffer (50 mM), EGTA (0.1 mM), bovine serum albumin (0.5 mg/mL), DTT (1.25 mM) and manganese chloride (10 mM)] was agitated at room temperature for 90 minutes.
These assay solutions were incubated for 2 hours at room temperature.
Phosphorylated biotinylated peptide is formed in situ as a result of mTOR mediated phosphorylation. The phosphorylated biotinylated peptide that is associated with AlphaScreen Streptavidin donor beads forms a complex with the p70 S6 Kinase (T389) 1A5 Monoclonal Antibody that is associated with Alphascreen Protein A acceptor beads. […] Accordingly, the presence of mTOR kinase activity results in an assay signal. In the presence of an mTOR kinase inhibitor, signal strength is reduced.

T1 sequence (P42345 1362-2549): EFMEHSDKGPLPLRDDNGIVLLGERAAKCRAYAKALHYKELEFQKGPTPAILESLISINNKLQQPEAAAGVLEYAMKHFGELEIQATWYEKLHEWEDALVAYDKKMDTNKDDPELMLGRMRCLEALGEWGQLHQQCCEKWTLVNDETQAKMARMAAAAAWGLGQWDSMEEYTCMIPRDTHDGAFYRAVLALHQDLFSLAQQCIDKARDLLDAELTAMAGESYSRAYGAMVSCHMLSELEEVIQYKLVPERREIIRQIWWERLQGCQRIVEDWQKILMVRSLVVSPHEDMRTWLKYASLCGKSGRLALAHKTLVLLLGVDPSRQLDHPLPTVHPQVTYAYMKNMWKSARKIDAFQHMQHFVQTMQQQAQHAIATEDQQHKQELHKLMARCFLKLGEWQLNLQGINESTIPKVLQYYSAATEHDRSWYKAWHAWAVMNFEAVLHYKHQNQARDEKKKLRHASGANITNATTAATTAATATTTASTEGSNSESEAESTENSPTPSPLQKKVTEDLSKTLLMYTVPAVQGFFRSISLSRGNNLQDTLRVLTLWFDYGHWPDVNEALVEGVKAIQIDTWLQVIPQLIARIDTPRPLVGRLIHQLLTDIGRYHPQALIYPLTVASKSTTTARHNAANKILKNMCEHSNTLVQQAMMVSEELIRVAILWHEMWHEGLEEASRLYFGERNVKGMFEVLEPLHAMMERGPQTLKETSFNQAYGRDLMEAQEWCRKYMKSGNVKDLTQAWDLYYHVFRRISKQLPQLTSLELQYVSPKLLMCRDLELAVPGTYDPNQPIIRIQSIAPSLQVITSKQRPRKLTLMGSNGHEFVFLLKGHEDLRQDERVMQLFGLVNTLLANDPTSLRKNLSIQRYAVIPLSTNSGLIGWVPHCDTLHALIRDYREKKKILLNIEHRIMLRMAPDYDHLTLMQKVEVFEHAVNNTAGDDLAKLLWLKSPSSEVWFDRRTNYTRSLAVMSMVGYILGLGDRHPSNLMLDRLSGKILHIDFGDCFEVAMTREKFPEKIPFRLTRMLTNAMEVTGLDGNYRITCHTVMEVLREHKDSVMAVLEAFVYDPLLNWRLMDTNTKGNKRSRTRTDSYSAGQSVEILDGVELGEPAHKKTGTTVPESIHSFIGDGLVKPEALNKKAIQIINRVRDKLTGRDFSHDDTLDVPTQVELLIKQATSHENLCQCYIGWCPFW

| SMILES | IC50 [nM] |
| --- | --- |
| CC(=O)NC(C)C(=O)Nc1ccc(-c2nc(CS(C)(=O)=O)cc(N3CCOCC3)n2)cc1 (stereo not shown) [Example 5d, 2-acetamido-N-[4-[4-(methylsulfonylmethyl)-6-morpholin-4-yl-pyrimidin-2-yl]phenyl]propanamide] | 7170 |
| CC(C)C(=O)Nc1ccc(-c2nc(CS(C)(=O)=O)cc(N3CCOCC3)n2)cc1 [Example 5g, 2-methyl-N-[4-[4-(methylsulfonylmethyl)-6-morpholin-4-yl-pyrimidin-2-yl]phenyl]propanamide] | 3670 |
| CC(C)CC(=O)Nc1ccc(-c2nc(CS(C)(=O)=O)cc(N3CCOCC3)n2)cc1 [Example 5h, 3-methyl-N-[4-[4-(methylsulfonylmethyl)-6-morpholin-4-yl-pyrimidin-2-yl]phenyl]butanamide] | 2580 |
| COCC(=O)Nc1ccc(-c2nc(CS(C)(=O)=O)cc(N3CCOCC3)n2)cc1 [Example 5j, 2-methoxy-N-[4-[4-(methylsulfonylmethyl)-6-morpholin-4-yl-pyrimidin-2-yl]phenyl]acetamide] | 8270 |
| CS(=O)(=O)Cc1cc(N2CCOCC2)nc(-c2ccc(NC(=O)CCc3ccco3)cc2)n1 [Example 5q, 3-(2-furyl)-N-[4-[4-(methylsulfonylmethyl)-6-morpholin-4-yl-pyrimidin-2-yl]phenyl]propanamide] | 4850 |
| CS(=O)(=O)Cc1cc(N2CCOCC2)nc(-c2ccc(NC(=O)c3cccnc3)cc2)n1 [Example 5r, N-[4-[4-(methylsulfonylmethyl)-6-morpholin-4-yl-pyrimidin-2-yl]phenyl]pyridine-3-carboxamide] | 2760 |
| CS(=O)(=O)Cc1cc(N2CCOCC2)nc(-c2ccc(NC(=O)C3CCC(=O)N3)cc2)n1 (stereo not shown) [Example 5t, N-[4-[4-(methylsulfonylmethyl)-6-morpholin-4-yl-pyrimidin-2-yl]phenyl]-5-oxo-pyrrolidine-2-carboxamide] | 2860 |
| CS(=O)(=O)Cc1cc(N2CCOCC2)nc(-c2ccc(NC(=O)C3CCOC3)cc2)n1 (stereo not shown) [Example 5u, N-[4-[4-(methylsulfonylmethyl)-6-morpholin-4-yl-pyrimidin-2-yl]phenyl]oxolane-3-carboxamide] | 4840 |
| Cc1ccc(C(=O)Nc2ccc(-c3nc(CS(C)(=O)=O)cc(N4CCOCC4)n3)cc2)cn1 [Example 5w, 6-methyl-N-[4-[4-(methylsulfonylmethyl)-6-morpholin-4-yl-pyrimidin-2-yl]phenyl]pyridine-3-carboxamide] | 8090 |
| CS(=O)(=O)Cc1cc(N2CCOCC2)nc(-c2ccc(NC(=O)c3ccc(C#N)nc3)cc2)n1 [Example 5x, 6-cyano-N-[4-[4-(methylsulfonylmethyl)-6-morpholin-4-yl-pyrimidin-2-yl]phenyl]pyridine-3-carboxamide] | 6200 |
| CS(=O)(=O)Cc1cc(N2CCOCC2)nc(-c2ccc(NC(=O)Cn3ccnc3)cc2)n1 [Example 5y, 2-imidazol-1-yl-N-[4-[4-(methylsulfonylmethyl)-6-morpholin-4-yl-pyrimidin-2-yl]phenyl]acetamide] | 2520 |
| Cc1ccc(C(=O)Nc2ccc(-c3nc(CS(C)(=O)=O)cc(N4CCOCC4)n3)cc2)n1C [Example 5z, 1,5-dimethyl-N-[4-[4-(methylsulfonylmethyl)-6-morpholin-4-yl-pyrimidin-2-yl]phenyl]pyrrole-2-carboxamide] | 9050 |

Now those with a lower IC50, led by results:

| IC50 [nM] | SMILES |
| --- | --- |
| 1010 | CS(=O)(=O)Cc1cc(N2CCOCC2)nc(-c2ccc(NC(=O)C3(C#N)CC3)cc2)n1 [Example 5at, 1-cyano-N-[4-[4-(methylsulfonylmethyl)-6-morpholin-4-yl-pyrimidin-2-yl]phenyl]cyclopropane-1-carboxamide] |
| 165 | CS(=O)(=O)Cc1cc(N2CCOCC2)nc(-c2ccc(NC(=O)CCC#N)cc2)n1 [Example 5au, 3-cyano-N-[4-[4-(methylsulfonylmethyl)-6-morpholin-4-yl-pyrimidin-2-yl]phenyl]propanamide] |
| 669 | CCCC(=O)Nc1ccc(-c2nc(CS(C)(=O)=O)cc(N3CCOCC3)n2)cc1 [Example 5b, N-[4-[4-(methylsulfonylmethyl)-6-morpholin-4-yl-pyrimidin-2-yl]phenyl]butanamide] |
| 1370 | CC(=O)NCC(=O)Nc1ccc(-c2nc(CS(C)(=O)=O)cc(N3CCOCC3)n2)cc1 [Example 5c, N-[[4-[4-(methylsulfonylmethyl)-6-morpholin-4-yl-pyrimidin-2-yl]phenyl]carbamoylmethyl] acetamide] |
| 1770 | CS(=O)(=O)CC(=O)Nc1ccc(-c2nc(CS(C)(=O)=O)cc(N3CCOCC3)n2)cc1 [Example 5e, 2-methylsulfonyl-N-[4-[4-(methylsulfonylmethyl)-6-morpholin-4-yl-pyrimidin-2-yl]phenyl]acetamide] |
| 966 | CS(=O)(=O)Cc1cc(N2CCOCC2)nc(-c2ccc(NC(=O)c3c[nH]cn3)cc2)n1 [Example 5f, N-[4-[4-(methylsulfonylmethyl)-6-morpholin-4-yl-pyrimidin-2-yl]phenyl]-1H-imidazole-4-carboxamide] |
| 1420 | CS(=O)(=O)Cc1cc(N2CCOCC2)nc(-c2ccc(NC(=O)c3ccco3)cc2)n1 [Example 5i, N-[4-[4-(methylsulfonylmethyl)-6-morpholin-4-yl-pyrimidin-2-yl]phenyl]furan-2-carboxamide] |
| 2080 | COCCC(=O)Nc1ccc(-c2nc(CS(C)(=O)=O)cc(N3CCOCC3)n2)cc1 [Example 5k, 3-methoxy-N-[4-[4-(methylsulfonylmethyl)-6-morpholin-4-yl-pyrimidin-2-yl]phenyl]propanamide] |
| 2000 | CCOCCC(=O)Nc1ccc(-c2nc(CS(C)(=O)=O)cc(N3CCOCC3)n2)cc1 [Example 5l, 3-ethoxy-N-[4-[4-(methylsulfonylmethyl)-6-morpholin-4-yl-pyrimidin-2-yl]phenyl]propanamide] |
| 1110 | CS(=O)(=O)Cc1cc(N2CCOCC2)nc(-c2ccc(NC(=O)CCC(F)(F)F)cc2)n1 [Example 5m, 4,4,4-trifluoro-N-[4-[4-(methylsulfonylmethyl)-6-morpholin-4-yl-pyrimidin-2-yl]phenyl]butanamide] |
| 614 | CS(=O)(=O)Cc1cc(N2CCOCC2)nc(-c2ccc(NC(=O)C3CC3)cc2)n1 [Example 5n, N-[4-[4-(methylsulfonylmethyl)-6-morpholin-4-yl-pyrimidin-2-yl]phenyl] cyclopropanecarboxamide] |
| 1850 | CS(=O)(=O)Cc1cc(N2CCOCC2)nc(-c2ccc(NC(=O)CC#N)cc2)n1 [Example 5o, 2-cyano-N-[4-[4-(methylsulfonylmethyl)-6-morpholin-4-yl-pyrimidin-2-yl]phenyl]acetamide] |
| 2290 | CS(=O)(=O)Cc1cc(N2CCOCC2)nc(-c2ccc(NC(=O)C(N)=O)cc2)n1 [Example 5s, N-[4-[4-(methylsulfonylmethyl)-6-morpholin-4-yl-pyrimidin-2-yl]phenyl]oxamide] |
| 36.9 | CS(=O)(=O)Cc1cc(N2CCOCC2)nc(-c2ccc(NC(=O)c3ccno3)cc2)n1 [Example 5v, N-[4-[4-(methylsulfonylmethyl)-6-morpholin-4-yl-pyrimidin-2-yl]phenyl]-1,2-oxazole-5-carboxamide] |
| 240 | C[C@H]1COCCN1c1cc(CS(C)(=O)=O)nc(-c2ccc(N(C)C(=O)c3ccno3)cc2)n1 [Example 7, N-Methyl-N-[4-[4-[(3S)-3-methylmorpholin-4-yl]-6-(methylsulfonylmethyl)pyrimidin-2-yl]phenyl]-1,2-oxazole-5-carboxamide] |
| 1980 | C[C@H]1COCCN1c1cc(CS(C)(=O)=O)nc(-c2cccc(NC(=O)c3ccno3)c2)n1 [Example 7a, N-[3-[4-[(3S)-3-methylmorpholin-4-yl]-6-(methylsulfonylmethyl)pyrimidin-2-yl]phenyl]-1,2-oxazole-5-carboxamide] |
